Legend:
blackgrass [1] = assay: Test C preemergence; format: in vivo, Alopecurus myosuroides; conditions: for Plant response rating (scale of 0 to 100 where 0 is no effect and 100 is complete control): Blackgrass, preemergence; for Blackgrass plant response rating (0 to 100): Preemergence, visual rating after 13 to 15 d
Method in brief: (§1)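 Seeds were planted in loam soil plus sand and sprayed preemergence. In parallel, potted plants in a peat-based medium were sprayed postemergence at 2 to 18 cm (1- to 4-leaf stage). Compounds were formulated in non-phytotoxic solvent with surfactant.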

soybean = assay: Test C preemergence; format: in vivo, Glycine max; conditions: for Soybean plant response rating (0 to 100): Preemergence, visual rating after 13 to 15 d
Method in brief: as §1

oilseed rape = assay: Test C preemergence; format: in vivo, Brassica napus; conditions: for Plant response rating (scale of 0 to 100 where 0 is no effect and 100 is complete control): Oilseed Rape, preemergence; for Oilseed Rape plant response rating (0 to 100): Preemergence, visual rating after 13 to 15 d
Method in brief: as §1

waterhemp = assay: Test C preemergence; format: in vivo, Amaranthus rudis; conditions: for Waterhemp plant response rating (0 to 100): Preemergence, visual rating after 13 to 15 d
Method in brief: as §1

blackgrass [2] = assay: Test D preemergence; format: in vivo, Alopecurus myosuroides; conditions: for Plant response rating: Blackgrass: scale 0 to 100
Method in brief: (§2)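 Test compounds are formulated in a non-phytotoxic solvent with surfactant. They are applied to the soil surface right after seeding in silt loam, or sprayed onto plants 2 to 18 cm tall in peat-based potting medium. Response is judged by eye against controls after 14 to 21 d.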

canarygrass = assay: Test D preemergence; format: in vivo, Phalaris minor; conditions: for Plant response rating: Canarygrass: scale 0 to 100
Method in brief: as §2

Russian thistle = assay: Test D preemergence; format: in vivo, Salsola kali; conditions: for Plant response rating: Russian Thistle: scale 0 to 100
Source text: Seeds of plant species selected from bluegrass (annual bluegrass, Poa annua), blackgrass (Alopecurus myosuroides), canarygrass (Phalaris minor), chickweed (common chickweed, Stellaria media), galium (catchweed bedstraw, Galium aparine), bromegrass, down (downy bromegrass, Bromus tectorum), Russian thistle (Salsola kali), field poppy (Papaver rhoeas), field violet (Viola arvensis), foxtail, green (green foxtail, Setaria viridis), deadnettle (henbit deadnettle, Lamium amplexicaule), ryegrass, Ital. (Italian ryegrass, Lolium multiflorum), kochia (Kochia scoparia), lambsquarters (Chenopodium album), oilseed rape (Brassica napus), pigweed (Amaranthus retroflexus), chamomile (scentless chamomile, Matricaria inodora), speedwell (bird's-eye speedwell, Veronica persica), barley, spring (spring barley, Hordeum vulgare), wheat, spring (spring wheat, Triticum aestivum), buckwheat, wild (wild buckwheat, Polygonum convolvulus), wild mustard (Sinapis arvensis), oat, wild (wild oat, Avena fatua), radish, wild (wild radish, Raphanus raphanistrum), […]), barley, winter (winter barley, Hordeum vulgare), and wheat, winter (winter wheat, Triticum aestivum) were planted into a silt loam soil and treated preemergence with test chemicals formulated in a non-phytotoxic solvent mixture which included a surfactant. At the same time, these species were planted in pots containing Sunshine Redi-Earth® planting medium comprising spaghnum peat moss, vermiculite, starter nutrients and dolomitic limestone and treated with postemergence applications of the test chemicals formulated in the same manner. Plants ranged in height from 2 to 18 cm (1- to 4-leaf stage). Treated plants and controls were maintained in a controlled growth environment for 14 to 21 d after which time all species were compared to controls and visually evaluated. […] A dash (-) response means no test result.

field poppy = assay: Test D preemergence; format: in vivo, Papaver rhoeas; conditions: for Plant response rating: Field Poppy: scale 0 to 100
Method in brief: as §2

field violet = assay: Test D preemergence; format: in vivo, Viola arvensis; conditions: for Plant response rating: Field Violet: scale 0 to 100
Method in brief: as §2

kochia = assay: Test D preemergence; format: in vivo, Kochia scoparia; conditions: for Plant response rating: Kochia: scale 0 to 100
Method in brief: as §2

oat, wild = assay: Test D preemergence; format: in vivo, Avena fatua; conditions: for Plant response rating: Oat, Wild: scale 0 to 100
Method in brief: as §2

foxtail, green = assay: Test D postemergence; format: in vivo, Setaria viridis; conditions: scale 0 to 100
Method in brief: as §2

deadnettle = assay: Test D postemergence; format: in vivo, Lamium amplexicaule; conditions: scale 0 to 100
Method in brief: as §2

pigweed = assay: Test D postemergence; format: in vivo, Amaranthus retroflexus; conditions: scale 0 to 100
Method in brief: as §2

buckwheat, wild = assay: Test D postemergence; format: in vivo, Polygonum convolvulus; conditions: scale 0 to 100
Method in brief: as §2

radish, wild = assay: Test D postemergence; format: in vivo, Raphanus raphanistrum; conditions: scale 0 to 100
Method in brief: as §2

[3] = 16 g ai/ha, 0 is no effect, 100 is complete control

## FC(F)(F)COc1nc(-c2ccc(Cl)cc2)nn1Cc1ccnc(C(F)(F)F)c1 [Compound 31]
Blackgrass [1]; 125 g ai/ha
  Plant response rating (scale of 0 to 100 where 0 is no effect and 100 is complete control): 90
Blackgrass [1]; 250 g ai/ha
  Plant response rating (scale of 0 to 100 where 0 is no effect and 100 is complete control): 95
Blackgrass [1]; 31 g ai/ha
  Blackgrass plant response rating (0 to 100): 80
Blackgrass [1]; 62 g ai/ha
  Blackgrass plant response rating (0 to 100): 70
soybean; 31 g ai/ha
  Soybean plant response rating (0 to 100): 5
soybean; 62 g ai/ha
  Soybean plant response rating (0 to 100): 5
soybean; Soybean, preemergence, 250 g ai/ha
  Plant response rating (scale of 0 to 100 where 0 is no effect and 100 is complete control): 10
Oilseed rape; 125 g ai/ha
  Plant response rating (scale of 0 to 100 where 0 is no effect and 100 is complete control): 45
Oilseed rape; 250 g ai/ha
  Plant response rating (scale of 0 to 100 where 0 is no effect and 100 is complete control): 85
Oilseed rape; 31 g ai/ha
  Oilseed Rape plant response rating (0 to 100): 10
Oilseed rape; 62 g ai/ha
  Oilseed Rape plant response rating (0 to 100): 20
waterhemp; 31 g ai/ha
  Waterhemp plant response rating (0 to 100): 100
waterhemp; 62 g ai/ha
  Waterhemp plant response rating (0 to 100): 100
waterhemp; Waterhemp, preemergence, 250 g ai/ha
  Plant response rating (scale of 0 to 100 where 0 is no effect and 100 is complete control): 100
Blackgrass [2]; [3]
  Plant response rating (0 to 100), Blackgrass: 35
Blackgrass [2]; 31 g ai/ha
  Plant response rating: Blackgrass: 40
Blackgrass [2]; 62 g ai/ha
  Plant response rating: Blackgrass: 60
Blackgrass [2]; 125 g ai/ha
  Plant response rating: Blackgrass: 75
canarygrass; [3]
  Plant response rating (0 to 100), Canarygrass: 50
canarygrass; 31 g ai/ha
  Plant response rating: Canarygrass: 85
canarygrass; 62 g ai/ha
  Plant response rating: Canarygrass: 90
canarygrass; 125 g ai/ha
  Plant response rating: Canarygrass: 100
Russian thistle; [3]
  Plant response rating (0 to 100), Russian Thistle: 70
Russian thistle; 62 g ai/ha
  Plant response rating: Russian Thistle: 85
Russian thistle; 125 g ai/ha
  Plant response rating: Russian Thistle: 90
Field poppy; [3]
  Plant response rating (0 to 100), Field Poppy: 95
Field poppy; 62 g ai/ha
  Plant response rating: Field Poppy: 100
Field poppy; 125 g ai/ha
  Plant response rating: Field Poppy: 100
Field violet; [3]
  Plant response rating (0 to 100), Field Violet: 95
Field violet; 62 g ai/ha
  Plant response rating: Field Violet: 100
Field violet; 125 g ai/ha
  Plant response rating: Field Violet: 100
kochia; [3]
  Plant response rating (0 to 100), Kochia: 80
kochia; 62 g ai/ha
  Plant response rating: Kochia: 90
kochia; 125 g ai/ha
  Plant response rating: Kochia: 95
oat, wild; [3]
  Plant response rating (0 to 100), Oat, Wild: 35
oat, wild; 62 g ai/ha
  Plant response rating: Oat, Wild: 55
oat, wild; 125 g ai/ha
  Plant response rating: Oat, Wild: 75
foxtail, green; 16 g ai/ha
  Plant response rating: Foxtail, Green: 70
foxtail, green; 31 g ai/ha
  Plant response rating: Foxtail, Green: 80
foxtail, green; 62 g ai/ha
  Plant response rating: Foxtail, Green: 80
foxtail, green; 125 g ai/ha
  Plant response rating: Foxtail, Green: 85
deadnettle; 16 g ai/ha
  Plant response rating: Deadnettle: 75
deadnettle; 31 g ai/ha
  Plant response rating: Deadnettle: 75
deadnettle; 62 g ai/ha
  Plant response rating: Deadnettle: 80
deadnettle; 125 g ai/ha
  Plant response rating: Deadnettle: 95
pigweed; 16 g ai/ha
  Plant response rating: Pigweed: 100
pigweed; 31 g ai/ha
  Plant response rating: Pigweed: 100
pigweed; 62 g ai/ha
  Plant response rating: Pigweed: 100
pigweed; 125 g ai/ha
  Plant response rating: Pigweed: 100
buckwheat, wild; 16 g ai/ha
  Plant response rating: Buckwheat, Wild: 65
buckwheat, wild; 31 g ai/ha
  Plant response rating: Buckwheat, Wild: 75
buckwheat, wild; 62 g ai/ha
  Plant response rating: Buckwheat, Wild: 75
buckwheat, wild; 125 g ai/ha
  Plant response rating: Buckwheat, Wild: 75
radish, wild; 16 g ai/ha
  Plant response rating: Radish, Wild: 95
radish, wild; 31 g ai/ha
  Plant response rating: Radish, Wild: 95
radish, wild; 62 g ai/ha
  Plant response rating: Radish, Wild: 95
radish, wild; 125 g ai/ha
  Plant response rating: Radish, Wild: 100

From patent US10681909B2, “Herbicidal triazoles” (FMC Corporation, priority 2014, dated 2020)
